Measured values reported in patent US20240382465A1, “AROMATIC ACETYLENE DERIVATIVE, AND PREPARATION METHOD THEREFOR AND USE THEREOF” (priority 2021, published 2024).
Converted amounts (≈) assume the structure as drawn. Where two headings read alike, the source gives them in different places.

What was measured:
[1] = target: recombinant Pseudomonas aeruginosa LpxC (Pseudomonas aeruginosa (strain ATCC 15692 / DSM 22644 / CIP 104116 / JCM 14847 / LMG 12228 / 1C / PRS 101 / PAO1), UniProt P47205); assay: Inhibition of LpxC enzymatic activity (fluorescamine assay); type: biochemical
Method: The degree of inhibition of the enzymatic activity of recombinant Pseudomonas aeruginosa LpxC by the compounds of the present disclosure under in vitro conditions was determined using the following method.
The experimental procedure is briefly described as follows: The test compound was first dissolved in DMSO to prepare a 10 mM stock solution. The reaction was carried out in a 96-well microplate. First, 20 μL of recombinant Pseudomonas aeruginosa LpxC (purchased from Signalway Antibody, product number AP74647-2) was added to each well, with a final concentration of 5 nM. 5 μL of the compound to be tested was then added, and the compound was diluted 4 times to 8 concentration points with a concentration range of 0.61-10,000 nM. 5 μL of LpxC substrate UDP-3-O—(R-3-hydroxydecanoyl)-GlcNAc (purchased from Biosynth Carbosynth, product number: mu75071) was added, with a final concentration of the substrate of 10 μM. The plate was incubated at 25° C. for 120 minutes. Then 20 μL of 2.0 mg/mL fluorescamine (purchased from sigmaaldrich, product number: F9015, solvent: 1:1 dimethylformamide/acetonitrile) was added to the reaction system, and mixed well for 10 minutes of reaction. Finally, 50 μL of 200 mM sodium phosphate buffer (pH 8.0) was added to terminate the reaction. Reading was carried out using a microplate reader (BMG), and the excitation and emission wavelengths were 390 and 495 nm respectively. By comparing with the fluorescence intensity ratio of the control group ([…]), the percentage inhibition rate of the compound at each concentration was calculated.

K. pneumoniae ATCC13883 = assay: Antibacterial activity, MIC by broth microdilution (CLSI); type: cell-based; conditions: Klebsiella pneumoniae
Method: (§1) The in vitro minimum inhibitory concentration (MIC) was determined in accordance with the CLSI guidelines, and was measured using the broth microdilution method.
(§2) The experimental process is briefly described as follows: The test compound was dissolved in DMSO to prepare a […] stock solution, which was then prepared into 11 twice-diluted 100× high-concentration working solutions (the final concentration of the system was 64 μg/mL-0.06 μg/mL) using DMSO. The strains (K. pneumoniae ATCC13883 and E. coli ATCC 25922) frozen in −80° C. glycerol were inoculated into solid agar medium, placed in an incubator at 35° C. for 18-24 hours of incubation. After the preparation of strains was completed, an appropriate amount of solid plate culture was collected, resuspended in physiological saline, and mixed well. The bacterial suspension was adjusted to a suitable turbidity using a turbidity meter, containing approximately 1×10^8 cfu/mL bacteria. Then the bacterial suspension with the adjusted turbidity was diluted to a bacterial concentration of 5×10^5 cfu/ml using the culture medium for measurement, to complete the preparation of the inoculum solution. 198 μL of the inoculum solution was inoculated into a 96-well plate, and then added with 2 μL of a 100× high-concentration working solution of the compound. Then the 96-well plate was placed at 35° C. for 18 to 24 hours of incubation.

E. coli ATCC 25922 = assay: as above; type: cell-based; conditions: Escherichia coli
Method: as §1, §2

[2] = recombinant P. aeruginosa LpxC 5 nM, substrate 10 μM, 25° C., 120 minutes, read-out: IC50
[3] = K. pneumoniae ATCC13883, 35° C., 18 to 24 hours, read-out: MIC(K. Pneumoniae)
[4] = ATCC25922, E. coli ATCC 25922, 35° C., 18 to 24 hours, read-out: MIC(E. coli)

Row | SMILES | IC50 [1, 2] [nM] | MIC (K. pneumoniae ATCC13883; [3]) [µg/mL] | MIC (E. coli ATCC 25922; [4]) [µg/mL] | IC50 [1] [nM] | MIC (K. pneumoniae ATCC13883; ATCC13883, read-out: MIC(K. Pneumoniae)) [µg/mL] | MIC (E. coli ATCC 25922; ATCC25922, read-out: MIC(E. coli)) [µg/mL]
1 | C[C@H](O)c1nccn1Cc1cc(-c2ccc(C#Cc3ccncc3)cc2)on1 [Example 10, (S)-1-(1-((5-(4-(pyridin-4-ylethynyl)phenyl)isoxazol-3-yl)methyl)-1H-imidazol-2-yl)ethan-1-ol] | 30.4 | 1 (≈ 2.7 µM) | 0.5 (≈ 1.35 µM) |  |  | 
2 | C[C@H](O)c1nccn1Cc1cc(-c2ccc(C#Cc3ccc(CN4CCC(O)CC4)cc3)cc2)on1 [Example 18, (S)-1-(4-((4-(3-((2-(1-hydroxyethyl)-1H-imidazol-1-yl)methyl)isoxazol-5-yl)phenyl)ethynyl)benzyl)piperidin-4-ol] | 9.84 | 4 (≈ 8.29 µM) | 2 (≈ 4.14 µM) |  |  | 
3 | C[C@H](O)c1nccn1Cc1cc(-c2ccc(C#Cc3ccc(C(N)=O)cc3)cc2)on1 [Example 23, (S)-4-((4-(3-((2-(1-hydroxyethyl)-1H-imidazol-1-yl)methyl)isoxazol-5-yl)phenyl)ethynyl)benzamide] | 7.75 | 1 (≈ 2.42 µM) | 0.25 (≈ 0.606 µM) |  |  | 
4 | C[C@H](O)c1nccn1Cc1cc(-c2ccc(C#Cc3ccc(C(=O)O)cc3)cc2)on1 [Example 24, (S)-4-((4-(3-((2-(1-hydroxyethyl)-1H-imidazol-1-yl)methyl)isoxazol-5-yl)phenyl)ethynyl)benzoic acid] | 22.2 | 8 (≈ 19.4 µM) | 4 (≈ 9.68 µM) |  |  | 
5 | C[C@H](O)c1nccn1Cc1cc(-c2ccc(C#Cc3ccc(C(=O)NCCO)cc3)cc2)on1 [Example 25, (S)-N-(2-Hydroxyethyl)-4-((4-(3-((2-(1-hydroxyethyl)-1H-imidazol-1-yl)methyl)isoxazol-5-yl)phenyl)ethynyl)benzamide] |  | 4 (≈ 8.76 µM) | 1 (≈ 2.19 µM) | 20.3 |  | 
6 | CC(=O)c1ccc(C#Cc2ccc(-c3cc(Cn4ccnc4[C@H](C)O)no3)cc2)cc1 [Example 26, (S)-1-(4-((4-(3-((2-(1-hydroxyethyl)-1H-imidazol-1-yl)methyl)isoxazol-5-yl)phenyl)ethynyl)phenyl)ethan-1-one] | 71.7 | 0.5 (≈ 1.22 µM) | 0.125 (≈ 0.304 µM) |  |  | 
7 | C[C@H](O)c1nccn1Cc1cc(-c2ccc(C#Cc3ccc(CCC(=O)O)cc3)cc2)on1 [Example 27, (S)-3-(4-((4-(3-((2-(1-hydroxyethyl)-1H-imidazol-1-yl)methyl)isoxazol-5-yl)phenyl)ethynyl)phenyl)propanoic acid] | 4.25 | 2 (≈ 4.53 µM) | 1 (≈ 2.27 µM) |  |  | 
8 | C[C@H](O)c1nccn1Cc1cc(-c2ccc(C#Cc3ccc(C(N)=O)nc3)cc2)on1 [Example 28, (S)-5-((4-(3-((2-(1-Hydroxyethyl)-1H-imidazol-1-yl)methyl)isoxazol-5-yl)phenyl)ethynyl)picolinamide] |  | 2 (≈ 4.84 µM) | 1 (≈ 2.42 µM) | 19.9 |  | 
9 | C[C@H](O)c1nccn1Cc1cc(-c2ccc(C#Cc3ccc(OCCO)cc3)cc2)on1 [Example 29, (S)-1-(1-((5-(4-((4-(2-hydroxyethoxy)phenyl)ethynyl)phenyl)isoxazol-3-yl)methyl)-1H-imidazol-2-yl)ethan-1-ol] | 14 |  |  |  | 0.25 (≈ 0.582 µM) | 0.25 (≈ 0.582 µM)
10 | C[C@H](O)c1nccn1Cc1cc(-c2ccc(C#Cc3ccc(C(O)CO)cc3)cc2)on1 (stereo partly drawn) [Example 30, 1-(4-((4-(3-((2-((S)-1-hydroxyethyl)-1H-imidazol-1-yl)methyl)isoxazol-5-yl)phenyl)ethynyl)phenyl)ethane-1,2-diol] | 12.7 | 1 (≈ 2.33 µM) | 0.5 (≈ 1.16 µM) |  |  | 
11 | C[C@H](O)c1nccn1Cc1cc(-c2ccc(C#Cc3ccc(CNC4CCS(=O)(=O)C4)cc3)cc2)on1 (stereo partly drawn) [Example 31] |  | 4 (≈ 7.74 µM) | 2 (≈ 3.87 µM) | 6.06 |  | 
12 | C[C@H](O)c1nccn1Cc1cc(-c2ccc(C#Cc3ccc(Cn4cccn4)cc3)cc2)on1 [Example 33, (S)-1-(1-((5-(4-((4-((1H-pyrazol-1-yl)methyl)phenyl)ethynyl)phenyl)isoxazol-3-yl)methyl)-1H-imidazol-2-yl)ethan-1-ol] | 28.1 | 0.25 (≈ 0.556 µM) | 0.125 (≈ 0.278 µM) |  |  | 
13 | C[C@H](O)c1nccn1Cc1cc(-c2ccc(C#Cc3ccc(CNCCO)cc3)cc2)on1 [Example 34, (S)-2-((4-((4-(3-((2-(1-hydroxyethyl)-1H-imidazol-1-yl)methyl)isoxazol-5-yl)phenyl)ethynyl)benzyl)amino)ethan-1-ol] |  | 2 (≈ 4.52 µM) | 1 (≈ 2.26 µM) | 4.86 |  | 
14 | C[C@H](O)c1nccn1Cc1cc(-c2ccc(C#Cc3ccc(CNCC(N)=O)cc3)cc2)on1 [Example 35, (S)-2-((4-((4-(3-((2-(1-hydroxyethyl)-1H-imidazol-1-yl)methyl)isoxazol-5-yl)phenyl)ethynyl)benzyl)amino)acetamide] |  | 0.5 (≈ 1.1 µM) | 0.25 (≈ 0.549 µM) | 14.9 |  | 
15 | C[C@H](O)c1nccn1Cc1cc(-c2ccc(C#Cc3ccc(CN4CCC(O)CC4)nc3)cc2)on1 [Example 36, (S)-1-((5-((4-(3-((2-(1-hydroxyethyl)-1H-imidazol-1-yl)methyl)isoxazol-5-yl)phenyl)ethynyl)pyridin-2-yl)methyl)piperidin-4-ol] | 8.33 | 4 (≈ 8.27 µM) | 2 (≈ 4.14 µM) |  |  | 
16 | C[C@H](O)c1nccn1Cc1cc(-c2ccc(C#Cc3ccc(CO)nc3)cc2)on1 [Example 37, (S)-1-(1-((5-(4-((6-(hydroxymethyl)pyridin-3-yl)ethynyl)phenyl)isoxazol-3-yl)methyl)-1H-imidazol-2-yl)ethan-1-ol] | 3.55 | 2 (≈ 4.99 µM) | 1 (≈ 2.5 µM) |  |  | 
17 | C[C@H](O)c1nccn1Cc1cc(-c2ccc(C#Cc3cccc(OCC#N)c3)cc2)on1 [Example 38, (S)-2-(3-((4-(3-((2-(1-hydroxyethyl)-1H-imidazol-1-yl)methyl)isoxazol-5-yl)phenyl)ethynyl)phenoxy)acetonitrile] | 50.8 | 1 (≈ 2.36 µM) | 0.5 (≈ 1.18 µM) |  |  | 
18 | C[C@H](O)c1nccn1Cc1cc(-c2ccc(C#Cc3ccc(CC(=O)O)nc3)cc2)on1 [Example 39, (S)-2-(5-((4-(3-((2-(1-hydroxyethyl)-1H-imidazol-1-yl)methyl)isoxazol-5-yl)phenyl)ethynyl)pyridin-2-yl)acetic acid] | 19.9 | 1 (≈ 2.33 µM) | 0.5 (≈ 1.17 µM) |  |  | 
19 | C[C@H](O)c1nccn1Cc1cc(-c2ccc(C#Cc3ccc(CCC(N)=O)nc3)cc2)on1 [Example 40, (S)-3-(5-((4-(3-((2-(1-hydroxyethyl)-1H-imidazol-1-yl)methyl)isoxazol-5-yl)phenyl)ethynyl)pyridin-2-yl)propanamide] | 16.7 | 4 (≈ 9.06 µM) | 1 (≈ 2.27 µM) |  |  | 
20 | C[C@H](O)c1nccn1Cc1cc(-c2ccc(C#Cc3ccc(C(=O)N4CCN(C)CC4)cc3)cc2)on1 [Example 42, (S)-(4-((4-(3-((2-(1-hydroxyethyl)-1H-imidazol-1-yl)methyl)isoxazol-5-yl)phenyl)ethynyl)phenyl)(4-methylpiperazin-1-yl)methanone] | 5.78 | 4 (≈ 8.07 µM) | 2 (≈ 4.04 µM) |  |  | 
